# Experimental data published in publication PMC12340070, “A novel modulator of IL-6R prevents inflammation-induced preterm birth and improves newborn outcome” (EMBO Molecular Medicine, 2025).
# Assays:
# [1] = system: murine IL-6R (Ba/F3-gp130-mIL-6R); conditions: ref Lokau et al, 2020; cited from earlier work
# Excerpt: HSJ633 has been formulated based on the human IL-6 receptor. […] Both Tocilizumab and MR-16 act as orthosteric antagonists, competitively interfering with IL-6 for receptor occupancy (Lokau et al, [2020]). The ...
# STAT3 = STAT3 phosphorylation in HEK-Blue IL-6 cells (immunoblot); type: cell-based, human; conditions: for p-STAT3 phospho/total: 10 min, densitometry
# Method: (§1) For RT-qPCR experiments, cells were plated in 6-well plates at 70% of confluence and starved overnight. Cells were treated respectively with HSJ633, HSJ630, HSJ631, HSJ634, HSJ635, HSJ639 (1 × 10^−6 M), or TCZ (3.44 μM, based on validated doses (Sahraoui et al, [2014])) for TNF-α expression. For hIL-1, hIL-6, and hTNF-α expression, cells were treated with HSJ633 using concentrations ranging from 10^−11 to 10^−4 M, allowing for equilibrium over 15 min. Cells were then treated with […] of IL-6 for 6 h for both experiments. Cell lysis was performed by adding RIBOzol. Samples were stored at −20 °C until analysis by quantitative PCR. To determine the degree of phosphorylation of different proteins (STAT3, ERK, AKT, and p38), HEK-Blue IL-6 cells were treated with HSJ633 (10^−6 M), TCZ (3.44 uM) or vehicle for 30 min in DMEM only. […] For p38 activation, 25 min of stimulation with IL-6 was required. The wells were charged with radioimmunoprecipitation assay buffer (RIPA) at a concentration of 1×, cOmplete EDTA-free Protease Inhibitor Cocktail final concentration 1×, and phenylmethanesulfonyl fluoride (PMSF) 1 mM. Samples were shaken for 30 min followed by centrifugation at 12,000 RPM at 4 °C for 20 min to harvest the proteins. Proteins were stored at −80 °C until analysis by immunoblotting.
# (§2) A total of 15 μL of protein from HEK-Blue IL-6 cells combined with Laemmli-SDS 1× (reducing) was loaded onto SDS-PAGE gel and electro-transferred onto polyvinylidene difluoride membranes. After blocking with BSA 5%-TBST for 1 h, membranes were incubated with the following antibodies (Ab): either mouse anti-phospho-STAT3 (1:1000), rabbit anti-phospho-AKT (1:1000), rabbit anti-phospho-ERK1/2 (1:1000), rabbit anti-phospho-p38 (1:1000), rabbit anti-cytochrome c oxidase 4 (1:5000) or mouse anti-GAPDH (1:20,000, Proteintech). After washing, membranes were incubated for 1 h with secondary antibodies conjugated to HRP (1:3000 Anti-rabbit IgG, HRP-linked Antibody and 1:5000 Goat Anti-Mouse IgG (H + L)-HRP Conjugate). Samples were normalized by membrane stripping (15 g glycine, 1 g SDS, 10 mL Tween-20 at pH 2,2) and incubation with Ab (mouse anti-STAT3 (1:1000), rabbit anti-AKT (1:1000), rabbit anti-ERK1/2 (1:1000) or rabbit anti-p38 (1:1000)). After washing, membranes were incubated for 1 h with secondary antibodies conjugated to HRP (1:3000 Anti-rabbit IgG, HRP-linked antibody and 1:5000 goat anti-mouse IgG (H + L)-HRP Conjugate). Western Lightning Plus ECL or Clarity MAX Western ECL Substrate were used for protein detection using the ChemiDoc MP, and densitometric analysis were completed with ImageLab from Bio-Rad Laboratories.
# AKT = AKT phosphorylation in HEK-Blue IL-6 cells (immunoblot); type: cell-based, human; conditions: for p-AKT phospho/total: 10 min, densitometry
# Method: as §1, §2
# p38 = p38 phosphorylation in HEK-Blue IL-6 cells (immunoblot); type: cell-based, human; conditions: for p-p38 phospho/total: densitometry
# Method: For RT-qPCR experiments, cells were plated in 6-well plates at 70% of confluence and starved overnight. Cells were treated respectively with HSJ633, HSJ630, HSJ631, HSJ634, HSJ635, HSJ639 (1 × 10^−6 M), or TCZ (3.44 μM, based on validated doses (Sahraoui et al, [2014])) for TNF-α expression. For hIL-1, hIL-6, and hTNF-α expression, cells were treated with HSJ633 using concentrations ranging from 10^−11 to 10^−4 M, allowing for equilibrium over 15 min. Cells were then treated with […] of IL-6 for 6 h for both experiments. Cell lysis was performed by adding RIBOzol. Samples were stored at −20 °C until analysis by quantitative PCR. To determine the degree of phosphorylation of different proteins (STAT3, ERK, AKT, and p38), HEK-Blue IL-6 cells were treated with HSJ633 (10^−6 M), TCZ (3.44 uM) or vehicle for 30 min in DMEM only. Human IL-6 (3.86 nM) was added to the medium for 15 min to stimulate IL-6R pathways leading to STAT3, ERK, and AKT activation. For p38 activation, 25 min of stimulation with IL-6 was required. The wells were charged with radioimmunoprecipitation assay buffer (RIPA) at a concentration of 1×, cOmplete EDTA-free Protease Inhibitor Cocktail final concentration 1×, and phenylmethanesulfonyl fluoride (PMSF) 1 mM. Samples were shaken for 30 min followed by centrifugation at 12,000 RPM at 4 °C for 20 min to harvest the proteins. Proteins were stored at −80 °C until analysis by immunoblotting.
# as §2
# ERK1/2 = ERK1/2 phosphorylation in HEK-Blue IL-6 cells (immunoblot); type: cell-based, human; conditions: for p-ERK 1/2 phospho/total: 10 min, densitometry
# Method: as §1, §2
# [2] = system: preterm birth in pregnant women; conditions: pregnancies prospectively reported following exposure; ref Hoeltzenbein et al, 2016; cited from earlier work
# Excerpt: Complete or partial inhibition of the IL-6 receptor by HSJ633 reduces maternal inflammation and thus prematurity levels.
# [3] = HEK-Blue IL-6, IL-6 3.86 nM, HSJ633 1 μM, TCZ 3.44 μM
substance,measurement,setting,value
Tocilizumab: IL-6R orthosteric antagonist monoclonal antibody,proliferation and activation of STAT3 in Ba/F3-gp130-mIL-6R,[1],no hindrance on the proliferation and activation of STAT3
same,p-STAT3 phospho/total,STAT3; mean (Moyenne),0.57
same,p-STAT3 phospho/total,STAT3; replicate 2,0.67
same,p-STAT3 phospho/total,STAT3; replicate 3,0.46
same,"STAT3 phosphorylation, result in words",STAT3; [3],blocked
same,p-AKT phospho/total,AKT; average,0.06
same,p-AKT phospho/total,AKT; replicate 2,0.0565
same,p-AKT phospho/total,AKT; replicate 3,0.06
same,"AKT phosphorylation, result in words",AKT; [3],blocked
same,"p38 phosphorylation, result in words",p38; [3],blocked
same,p-p38 phospho/total,p38; average,0.66
same,p-p38 phospho/total,p38; replicate 1,0.67
same,p-p38 phospho/total,p38; replicate 2,0.65
same,p-ERK 1/2 phospho/total,ERK1/2; average,0.11
same,p-ERK 1/2 phospho/total,ERK1/2; replicate 2 (633-2 marked Outliers),0.12
same,p-ERK 1/2 phospho/total,ERK1/2; replicate 3,0.09
same,"ERK1/2 phosphorylation, result in words",ERK1/2; [3],blocked
same,increase rate in preterm birth vs general population,[2],31.1%
